Source: patent publication US20110039812A1, “N-ALKYLCARBONYL-D-AMINO HYDROXYALKYL ESTER COMPOUNDS AND THEIR USE” (priority 2006, published 2011)

Tests used:
[1] = test system: oral cavity; test: Oral cavity test of tablets placed in the back of the mouth; type: in vivo, human
Experimental: The NACHE were also tested in the oral cavity using these methods: a) placement of 2 mg of the crystalline chemical on the dorsal surface of the tongue, b) incorporation of 2 mg of NACHE into a rapidly-distintegrating tablet of 60 mg weight, and placement of the tablet on the caudal-dorsal surface of the tongue, c) placement of a 0.3 mL aliquot of a 5 mg/mL solution of a NACHE in a 50% ethanol-distilled water solution, and d) delivery of a 5 mg/mL solution of a NACHE in a 50% ethanol-distilled water solution into the oral cavity using a hand-activated mouth spray dispenser. The tests in the oral cavity were important because many cooling agents used in confectionery and comestibles have disagreeable tastes of bitterness, harshness or burning qualities that limit their utility in such items as candy, mints, mouthwashes, mouth fresheners, and cough syrups.
Tablets of CPS-154 were prepared. To weighed samples of about 200 mg of CPS-154 was added varying amounts of Ludipress® (BASF, Germany) to give CPS-154 concentrations of 2.5, 3. 5, 10 and 10% by wt. The two ingredients were then thoroughly mixed in a mortar and pestle. To this mixture when then added 5 to 7 mL of 10% ethanol −90% distilled water solution. Using an eye dropper or a pipette, fixed volumes of the solution was placed on wax paper and dried under a heat source. The tablets were then sized and weighed.
Using the above formulation methods, three doses of 1, 2 and 4 mg per application were examined. […] The onset effect was usually within 30 seconds of application. […] Also, the effects of menthol were short-lived, on the order 8 to 12 minutes, versus a 20 to 30 minute period or longer.

[2] = test system: dorsal surface of the tongue; conditions: average for 6 subjects, after 30 seconds; cited from earlier work
[3] = test system: asthmatic coughing attacks; test: Tablets as needed in a subject with asthma; type: in vivo, human
Excerpt: A person with a documented 31-year history of asthma attacks volunteered to test one of the compounds of Formula 1. They were extremely sensitive to agents such as tobacco smoke, dust, pollen, odors, down/woolen materials, house cleansing products, pets, and sudden change of air temperature and reacted with violent coughing, mucus secretions, wheezing, choking, and shortness of breath. At the time of this trial, they were taking these medications for their condition: theophylline, Allegra®, Advair®, Intal®, and Singulair®. They were given 20 tablets of CPS-154, synthesized as described in Example 3, and instructed to take one on an as-needed basis.

[4] = test system: cough; test: Powder on the tongue of two cigar smokers with cough; type: in vivo, human
Excerpt: Two males, were inveterate cigar smokers consuming 3 to 5 cigars per day. They both had frequent bouts of dry, non-productive, hacking coughs. At night, there were episodes of insomnia characterized by difficulties in breathing, an oppressive pressure on the chest and throat, and subsequent awakening with sensations of choking. During the day, a frequent and persistent sensation was that of tickling, irritative feelings in the back of the throat that led to coughing.
In 10 trials per subject, 2 mg of 92% pure powder of CPS-154 was placed on the mid-portion of the tongue of these two subjects. Both subjects reported relief from the desire to cough within 1 minute after application. Sensations of robust coolness in the back of the throat was noted and lasted for 15 to 20 minutes. Applications of similar amounts of powdered sugar were not effective, but the placebo could be clearly distinguished from the active compound because of the absence of cooling sensations.

[5] = test system: viral cough; test: Tablets as needed in a subject with viral cough; type: in vivo, human; conditions: 2.0 mg tablets as needed
Experimental: A person has severe allergies and also developed a cough after a cruise trip overseas. Upon visit to a physician, they were diagnosed with a “viral cough” and prescribed codeine in a syrup. They volunteered to try CPS-154 tablets and was supplied with 15 tablets stored in a flip top plastic box, each containing 2.0 mg of CPS-154, in a 4% wt/wt lactose matrix (Ludipress®). The subject was instructed to take one tablet on an as-needed basis, with a preferred interval of 3 to 4 hours between tablets.

[6] = test system: skin above the upper lip; test: Cooling sensation bioassay: ointment applied to skin above the upper lip; type: in vivo, human
Excerpt: A reliable place for topical application is the skin above the upper lip (above the vermilion border of the lips), on the philtrum, lateral to the philtrum until the nasolabial folds, and on the lower nostrils (subnasale). This part of the face is known to be densely innervated with cold receptors, second only to the surfaces of the eyeball and anogenitalia. A second location is on or below the malar eminence (cheekbone). The skin above the cheekbone is thicker than above the lips, and therefore has a higher threshold for activation. At both loci, tingling, cool and cold sensations in the skin may be experienced and rated for time of onset and intensity.
The intensity of the subjective skin sensation is rated as 0, 1, 2 or 3 with 0 as no change, 1 as slight coolness, cold, or tingling, 2 as clear-cut signal of coolness, cold, or tingling, and 3 as robust cooling or cold. The intervals for recording sensations are 5 to 10 minutes, until two successive zeroes are obtained. The results (shown in FIG. 1) are averaged values of 4 to 6 separate trials in the same individual. The data are plotted using SigmaPlot (Systat Software, Point Richmond Calif.) and a smoothing function with a negative eponential was used for analysis and statistical fit of the results. […]

[7] = test system: cough; test: Orally-disintegrating tablet in the back of the mouth, anti-tussive action; type: in vivo; conditions: 40 to 60 mg Ludipress tablet containing 1 to 5 mg
Excerpt: Especially favored in this invention is the formulation of the NACHE of Formula 1, into an orally-disintegrating tablet.

| SMILES | quality and site of cooling sensations ([1]; tablets, 2 or 4 mg dose) | Threshold (amount producing cooling sensations on the tongue), average [2] | recurrence of asthmatic coughing attacks ([3]; continued use of tablets as needed) | side-effects ([3]; one tablet, asthma subject) | dissolution of tablets in the back of the mouth ([1]; Ludipress tablets) | activity in the oral cavity, D-analog versus L-equivalent ([1]; tablets) | onset of cooling effect after application ([1]; tablets, 2 or 4 mg dose) | time to relief from the desire to cough ([4]; 2 mg of 92% pure powder on mid-portion of the tongue, 2 subjects) | time the desire to cough was removed ([4]; after 8 applications, continued smoking of cigars) | effect on cough severity [5] | duration of action of cooling on the skin of the upper lip ([6]; Aquaphor ointment 0.5 and 1% wt/vol, 50 to 80 mg) | potency / cooling activity on the skin of the upper lip (comparison, FIG. 1) ([6]; ointment on upper lip skin) | anti-tussive action [7] |
| --- | --- | --- | --- | --- | --- | --- | --- | --- | --- | --- | --- | --- | --- |
| CC1CCC(C(C)C)C(O)C1 (single isomer, unassigned; (-)) [Menthol, (−)-menthol, reference compound] | cooling primarily in the nasopharynx and less in the oral cavity | 0.25 µg | – | – | – | – | – | – | – | – | – | – | – |
| CC(C)[C@@H]1CC[C@@H](C)C[C@H]1C(=O)N[C@H](C)C(=O)OCCCO [CPS-154, (R)-2-[((1R,2S,5R)-2-isopropyl-5-methyl-cyclohexanecarbonyl)-amino]-propionic acid 3-hydroxy-propyl ester] | pleasant and robust cooling sensations on the tongue, extending down to the back of throat | – | have not recurred with any severity for six months | did not sense any build up of sputum or other side-effects | dissolved within a matter of seconds | clearly more active than the L-equivalent | ≤ 30 s | ≤ 1 min | at least 3 days | less severe | more than 1 hour | comparable to its alkyl ester analog, CPS-369 | robust anti-tussive action for several hours |
